The source of these data is patent publication US9474730B2, “Methods and compositions for use with K-ras mediated disorders” (Board of Regents of the University of Texas System, priority 2012, dated 2016).

Counter-ions that a name gives are not always drawn.

Test [1] concerns the target T1, mGFP-tagged K-rasG12V in BHK cells (Homo sapiens, UniProt P01116, G12V).
T1 construct: BHK cells expressing GFP-tagged full length constitutively active Ras (G12V) proteins; expressed in transfected cells
Nature of the test: Immuno-electron microscopy and spatial analysis of plasma membrane sheets, K-rasG12V. The following applies: 6 μg/mL, 48 h. It is filed as cell-based, hamster. As to the method:
FIG. 4: Illustrates that fendiline HCl alters plasma membrane association and nanoclustering of K-ras: Plasma membrane sheets were generated from cells expressing GFP-K-rasG12V or GFP-H-rasG12V. Cells were treated with vehicle or fendiline HCl (6 μg/mL) for 48 h. Plasma membrane sheets were labeled with anti-GFP antibody conjugated to 4.5 nm gold. The plasma membrane sheets were imaged in an electron microscope and the spatial distribution of the gold labeling was analyzed using Ripley's K-function. Maximum L(r)-r values above the 99% confidence interval (C.I.) for complete spatial randomness (CSR) indicate clustering at that value of r. […] Significant differences from the control pattern for fendiline treated cells were assessed using bootstrap tests, wherein experimentation was performed in accordance with principles described herein;
Immuno-EM and spatial analysis were conducted exactly as described previously (Hancock, J. F., and Prior, I. A. (2005). Electron microscopic imaging of Ras signaling domains. Methods 37, 165-172; Prior, I. A., Muncke, C., Parton, R. G., and Hancock, J. F. (2003). Direct visualization of Ras proteins in spatially distinct cell surface microdomains. J Cell Biol 160, 165-170). […] Intact 1-μm^2 areas of the plasma membrane sheet were identified using ImageJ, and the x-y coordinates of the gold particles were determined. […]

Test [2] has as its system Raf kinase activity in BHK cells stably expressing K-rasG12V. Nature of the test: Raf kinase assay on membrane fractions of treated cells (coupled MEK/ERK assay). The following applies: 6 μg/mL, 48 h; phosphorylation of recombinant ERK substrate. The class given is cell-based, hamster. As to the method:
FIG. 5: Illustrates that fendiline HCl inhibits Raf kinase activity and signaling downstream of oncogenic K-ras: BHK cells stably expressing K-rasG12V were treated with vehicle or fendiline HCl (6 μg/mL) for 48 h. (A) Raf kinase activity in membrane fractions prepared from the cells was measured in a coupled […] kinase assay. Data is shown as mean±SEM from 3 independent experiments. (B) ppMEK and ppERK in soluble protein fraction and pAkt levels in membrane protein fraction were measured by quantitative Western blotting. Actin and Akt were used as loading controls for soluble and membrane fractions, respectively. A representative blots are shown. Data is shown as mean±SEM from 3-4 independent experiments. Statistical significance was calculated using one way ANOVA and Student's T-test. (*=p<0.05), wherein experimentation was performed in accordance with principles described herein;
Membrane (P100) fractions were prepared from BHK or MDCK cells were dissolved in Buffer A containing 1% TritonX100. Solubilized P100 fractions were incubated with combinations of recombinant MEK and ERK in the presence of Mg^2+-ATP (40 mM and 0.5 mM, respectively) After 30 min at 30° C. with vigorous shaking, the pMEK and ppERK levels were determined by quantitative Western blotting.

The test system of test [3] is MDCK and BHK cells expressing oncogenic mutant H-RasG12V. Nature of the test: Signaling in cells expressing oncogenic H-RasG12V, Western blotting. It is filed as cell-based, canine (MDCK), hamster (BHK). Conditions: to the similar extent as in K-rasG12V cells, 6 μg/mL, 48 h. As to the method:
FIG. 7: Illustrates that H-rasG12V signals through endogenous K-ras: BHK cells stably expressing H-rasG12V were treated with vehicle or fendiline HCl (6 μg/mL) for 48 h. (A) ppMEK and ppERK in soluble protein fraction and pAkt levels in membrane protein fraction were measured by quantitative Western blotting. A representative blots are shown. (B) BHK cells stably expressing H-rasG12V were transfected with K-ras siRNA encoding plasmid. 24 h after transfection, cells were treated with vehicle or fendiline HCl (6 μg/mL) for a further 48 h. Whole cell lysates were prepared from serum starved cells and analyzed by quantitative Western blotting. Representative Western blots are shown. Data is shown as mean±SEM from 6 independent experiments. […] (*=p<0.05), and experimentation was performed in accordance with principles described herein;
Preparation of whole-cell lysates: cells were lysed in Buffer B (50 mM Tris [pH 7.5], 75 mM NaCl, 25 mM NaF, 5 mM MgCl2, 5 mM EGTA, 1 mM dithiothreitol, 100 μM NaVO4, 1% Nonidet P-40 plus protease inhibitors). Cellular fractionation: cells were incubated in Buffer A (10 mm Tris-HCl, pH 7.5, 25 mm NaF, 5 mm MgCl2, 1 mm EGTA, 1 mm dithiothreitol, 100 μm NaVO4 plus protease inhibitors) for 30 minutes on ice and lysed by passing through a 27 G needle 30 times. The post nuclear supernatant was centrifuged at 100,000 g for 30 minutes and the membrane pellet was resuspended in Buffer A containing 1% Triton X-100.
Quantification of intensities was performed using FluorChemQ software.

Turning to `CC(NCCC(c1ccccc1)c1ccccc1)c1ccccc1` (stereo not drawn) [fendiline HCl], in test [1], the “clustering of K-rasG12V on plasma membrane” value was “reduced clustering of both K- and H-rasG12V proteins”; the “plasma membrane associated K-rasG12V (EM gold labeling)” value is “reduces the plasma membrane associated K-rasG12V”. Besides, the “reduction of the amount of active Raf compared to vehicle-treated control” value in test [2] is recorded as “approximately 60%”. For the same compound, in test [3], the pAkt levels result is listed as “decreased”, the pERK levels result was “decreased” and the pMEK levels result is given as “decreased”.
